In patent US4034111A, “Compositions of and new uses for N-acylanilinobutyric acids” (Byk Gulden Lomberg Chemische Fabrik GmbH, priority 1974, dated 1977):
Where two headings read alike, the source gives them in different places.

Assays:
Pancreas secretion [1] = assay: Pancreas secretion (rat), i.d. administration; assay type: in vivo; details: intraduodenal, as sodium salt; for ED (50% increase): Rattus norvegicus, read-out: Increase in pancreas secretion by 50 % maximum (dose); for minimal effective dose: read-out: Increase in pancreas secretion: significantly effective of [ ]
Description: (§1) 1. Pancreas secretion (rat and cat) was examined along the lines of the method described by C. J. Dockray [J. Physiol., 225, 679, (1972)] for the rat and of that described by R. M. Case et al [J. Physiol., 223, 669, (1972)] for the cat.
(§2) The pancreas secretion and the bile of narcotized rats (female, 250 to 300 g, stomachs not empty; narcosis: 5 ml/kg of a 25 % urethane solution= 1.25 g/kg i.m.) and cats (both sexes, stomachs empty, 3 to 4 kg; narcosis: laughing gas and 60 mg/kg i.p. chloralose and 120 mg/kg i.p. urethane; permanent infusion of 0.4 to 2 E/kg/hour secretine= 1 to 6 ml/animal/hour,pylorus ligature) were separately transferred to the outside. After an initial period of about 2 hours compounds to be examined were administered intravenously to some and intraduodenally to other animals (volume of injection rat/cat 1 ml/kg). The volume and, respectively, the protein content (amylase, lipase, trypsine) of the fraction for 30 minutes and 15 minutes, respectively, were determined by conventional methods (Boehringer Test Combination 15899).

stomach ulcers = assay: Anti-ulcerogenity: suppression of acetylsalicylic acid-induced stomach ulcers in rats; assay type: in vivo, rat (Sprague-Dawley, female); details: 24 h, rat, oral, 30 min before 200 mg/kg acetylsalicylic acid, as sodium salt; for ED100: read-out: Suppression of the formation of stomach ulcers by 100 % (dose); for ED50: read-out: Suppression of the formation of stomach ulcers by 50% (dose)
Description: 2. Anti-ulcerogenity was determined according to the method described in German Offenlegungsschrift DT-OS 2,118,200. Female Sprague-Dawley rats weighing about 200 g were kept on empty stomach for 24 hours. Then the compounds to be tested were administered orally in the form of their sodium salts in aqueous solution. After 30 minutes 200 mg/kg acetylsalicyclic acid (in 10 ml/kg of an 1% tylose suspension) were administered to cause stomach ulcers. Control groups received the corresponding amount of water instead of the sodium salt solutions. The ulcus rate was determined microscopically 24 hours after the administration of acetylsalicyclic acid.

[2] = system: serum enzyme increase (GOT/GPT) after allyl alcohol; assay: Anti-hepatotoxic action: liver damage due to allyl alcohol, serum enzymes GOT/GPT; assay type: in vivo, rat (Sprague-Dawley, female); details: rat, oral, as sodium salt, serum 18 hours after allyl alcohol; read-out: Anti-hepatotoxic action: inhibition of serum enzyme increase by 25 % (GOT/GPT), damage due to allyl alcohol (dose)
Description: (§3) 5. The determination of the anti-hepatotoxic and hepatotropic effect, respectively, was carried out by damaging the liver with allyl alcohol or galactosamine.
(a) Damaging due to allyl alcohol was carried out in accordance with the method of Renker et al. [Arzneimittelforschung, 22, 1009 (1972)] and of H. Rauen and Schriewer [Arzneimittelforschung, 21, 1194 (1971)]: female Sprague-Dawley-rats (250 to 300 g) received 3 ml/kg of 1.25 % allyl alcohol solution orally […] the compounds to be tested and the solvent (control) had also been administered orally. 18 hours after the damage due to allyl alcohol a blood sample was taken from the tail (0.5 to 0.7 ml) with slight ether narcosis. The serum enzymes GOT (glutamate oxalacetate transaminase) and GPT (glutamate pyruvate transminase) were determined with the help of the Boehringer Test Combination (No. 15955/56)-- micromethod.

[3] = system: serum enzyme increase (GOT/GPT) after galactosamine; assay: Anti-hepatotoxic action: liver damage due to galactosamine, serum enzymes GOT/GPT; assay type: in vivo, rat (Sprague-Dawley, male); details: rat, oral, as sodium salt, serum 24 hours after 200 mg/kg d-galactosamine hydrochloride i.p.; read-out: Anti-hepatotoxic action: inhibition of serum enzyme increase by 25 % (GOT/GPT), damage due to galactosamine (dose)
Description: as §3
(b) Damaging, due to galactosamine (galactosamine hepatitis) was carried out in accordance with the method described in Arzneimittelforschung 23 Nr. 1a, 159 (1973): Male Sprague-Dawley rats (220 to 300 g) received 200 mg/kg d-galactosamine hydrochloride (Merck, Darmstadt, article no. 4085) intraperitoneally (injection volume 2 ml/kg) 1 hour after oral administration of the compounds to be tested. 24 hours after the damage due to galactosamine a blood sample was taken from the vena orbitalis with slight ether narcosis. The serum enzymes were determined as described under a.

Pancreas secretion [4] = assay: Pancreas secretion (cat), pancreas liquid and protein (enzyme); assay type: in vivo; details: Felis catus, as sodium salt
Description: as §1, §2

heart force of the heart = assay: Heart force (left ventricle pressure course) in narcotized cats; assay type: in vivo; details: Felis catus, iv; cat, i.v. administration, as sodium salt; read-out: Increase in heart force of the heart, effective of
Description: 3. The influence of the acylated anilinocarboxylic acids on heart force was determined along the lines of the method of W. Kroneberg et al. [Arzneimittelforschung, 22, 2 (1972)] by determination of the pressure course (isometrically) and pressure increase in the left heart ventricle upon intraveneous administration of the substance to narcotized cats.

[5] = system: circulation of blood in internal organs (liver, pancreas); assay: Blood circulation through internal organs (liver, pancreas); assay type: in vivo; details: Felis catus, iv; cat, i.v. administration, as sodium salt; read-out: Increase in circulation of blood in internal organs (liver, pancreas), effective of
Description: 4. The blood circulation through the liver was determined by the arterial blood supply (Art. hepatica) along the lines of the method described by Scholtholt (Habilitationsschrift, faculty of medicine, University of Dusseldorf (1969) "Experimental studies with regard to the blood circulation through the liver").

COc1ccc(N(CCCC(=O)O)C(=O)c2ccccc2)cc1 [(2), N-benzoyl-γ-(p-anisidino)butyric acid]
ED (50% increase) (Pancreas secretion [1]): ~0.2 mg/kg | minimal effective dose (Pancreas secretion [1]): 0.05 mg/kg | ED100 (stomach ulcers): 1.5 mg/kg | ED25 [2]: 5 to 10 mg/kg | ED25 [3]: ~50 mg/kg

COc1ccc(N(CCCC(=O)O)C(=O)c2ccc(Cl)cc2)cc1 [(3), N-(p-chlorobenzoyl)-γ-(p-anisidino)butyric acid]
ED (50% increase) (Pancreas secretion [1]): 1 to 5 mg/kg | minimal effective dose (Pancreas secretion [1]): 0.05 mg/kg | ED (100% increase) (Pancreas secretion [4]; intraduodenal, i.d. administration, read-out: Increase in pancreas secretion by 100 % maximum: pancreas liquid (dose)): ~10 mg/kg | ED (100% increase) (Pancreas secretion [4]; intraduodenal, i.d. administration, read-out: Increase in pancreas secretion by 100 % maximum: protein (enzyme) (dose)): ~1 mg/kg | ED (100% increase) (Pancreas secretion [4]; iv, i.v. administration, read-out: Increase in pancreas secretion by 100 % maximum: protein (enzyme) (dose)): < 10 mg/kg | ED50 (stomach ulcers): 1 to 5 mg/kg | ED100 (stomach ulcers): ~10 mg/kg | minimal effective dose (heart force of the heart): 1 mg/kg | minimal effective dose [5]: 1 to 5 mg/kg | ED25 [2]: 5 to 10 mg/kg | ED25 [3]: ~20 mg/kg

CCOc1ccc(N(CCCC(=O)O)C(=O)c2ccc(Cl)cc2)cc1 [(4), N-(p-chlorobenzoyl)-γ-(p-phenetidino)butyric acid]
ED (50% increase) (Pancreas secretion [1]): 0.1 to 0.5 mg/kg | minimal effective dose (Pancreas secretion [1]): 0.05 mg/kg | ED100 (stomach ulcers): ~15 mg/kg | minimal effective dose (heart force of the heart): 1 mg/kg | minimal effective dose [5]: 1 to 5 mg/kg | ED25 [2]: ~10 mg/kg | ED25 [3]: ~10 mg/kg

COc1ccc(N(CCCC(=O)O)C(=O)c2ccc(Cl)cc2)cc1OC [(7), N-(p-chlorobenzoyl)-γ-(3,4-dimethoxyanilino)butyric acid]
ED (50% increase) (Pancreas secretion [1]): ~1 mg/kg | minimal effective dose (Pancreas secretion [1]): ~0.1 mg/kg | ED100 (stomach ulcers): ~5 mg/kg | minimal effective dose (heart force of the heart): 1 to 5 mg/kg | minimal effective dose [5]: 1 mg/kg | ED25 [2]: 50 mg/kg | ED25 [3]: ~20 mg/kg

Cc1cccc(C)c1N(CCCC(=O)O)C(=O)c1ccccc1Cl [(8), N-(o-chlorobenzoyl)-γ-(2,6-dimethylanilino)butyric acid]
ED (50% increase) (Pancreas secretion [1]): ~1 mg/kg | minimal effective dose (Pancreas secretion [1]): 0.01 mg/kg | ED100 (stomach ulcers): ~30 mg/kg | minimal effective dose (heart force of the heart): 1 mg/kg | minimal effective dose [5]: 1 mg/kg | ED25 [3]: ~20 mg/kg

Cc1cccc(C)c1N(CCCC(=O)O)C(=O)c1ccc(Cl)cc1 [(9), N-(p-chlorobenzoyl)-γ-(2,6-dimethylanilino)butyric acid]
ED (50% increase) (Pancreas secretion [1]): 0.2 to 0.5 mg/kg | minimal effective dose (Pancreas secretion [1]): 0.01 mg/kg | ED50 (stomach ulcers): 0.5 to 1 mg/kg | ED100 (stomach ulcers): 1 to 5 mg/kg | minimal effective dose (heart force of the heart): 1 to 5 mg/kg | minimal effective dose [5]: 1 mg/kg | ED25 [2]: ~10 mg/kg | ED25 [3]: 10 to 20 mg/kg

O=C(O)CCCN(C(=O)c1ccc(Cl)cc1)c1ccc(O)cc1 [(11), N-(p-chlorobenzoyl)-γ-(p-hydroxyanilino)butyric acid]
ED (50% increase) (Pancreas secretion [1]): ~0.7 mg/kg | minimal effective dose (Pancreas secretion [1]): 0.5 mg/kg | minimal effective dose (heart force of the heart): ~1 mg/kg | minimal effective dose [5]: 1 to 5 mg/kg | ED25 [2]: ~10 mg/kg

CC(=O)N(CCCC(=O)O)c1cccc(Cl)c1 [(12), N-acetyl-γ-(m-chloroanilino)butyric acid]
ED (50% increase) (Pancreas secretion [1]): ~1 mg/kg | minimal effective dose (Pancreas secretion [1]): 0.1 mg/kg | minimal effective dose (heart force of the heart): 2.5 mg/kg
